Measurements taken from patent US20250206732A1, “COMPOUNDS AND METHODS FOR THE TARGETED DEGRADATION OF KRAS” (Arvinas Operations, Inc., priority 2022, published 2025).

Biological target: T1, AsPC-1 HiBiT-KRASG12D (Homo sapiens, UniProt P01116, G12D)
T1 construct: insert the HiBiT tag onto the N-terminus of one or more of the endogenous KRAS alleles; endogenous in cells; host or cells: AsPC-1 (ATCC CRL-1682), CRISPR-Cas9 knock-in clone, one tagged allele
Assay: HiBiT degradation assay (G12D), AsPC-1 HiBiT-KRASG12D cells
Type: cell-based
Conditions: 24 hours treatment; for Dmax: ASPC1, AsPC-1 HiBiT-KRASG12D cells, maximum degradation observed; for DC50: AsPC-1 HiBiT-KRASG12D cells, HiBiT luminescence
In short: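 Steps: treat HiBiT-KRASG12D AsPC-1 cells with compound for 24 hours; add alamar blue to 1× and incubate 4 hours to assess viability; wash with PBS; add HiBiT lytic detection reagent, incubate 45 minutes at room temperature; read luminescence. Viability fluorescence is normalized to DMSO wells.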

T1 sequence (P01116 1-188 isoform P01116-2 G12D): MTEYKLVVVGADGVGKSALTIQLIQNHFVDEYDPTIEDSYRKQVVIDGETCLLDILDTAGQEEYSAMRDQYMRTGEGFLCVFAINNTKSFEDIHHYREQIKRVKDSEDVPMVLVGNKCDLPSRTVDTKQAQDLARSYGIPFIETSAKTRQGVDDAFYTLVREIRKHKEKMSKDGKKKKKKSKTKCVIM

| SMILES | Dmax [%] | DC50 [µM] |
| --- | --- | --- |
| CCc1cccc2cc(O)cc(-c3ncc4c(N5CC6CCC(C5)N6)nc(OCCC5CCN(CC6CN(c7cc([C@H](C(=O)N8C[C@H](O)C[C@H]8C(=O)N[C@@H](C)c8ccc(-c9scnc9C)cc8)C(C)C)on7)C6)CC5)nc4c3F)c12 [Compound 218, (2S,4R)-1-[(2R)-2-(3-{3-[(4-{2-[(4-{3,8-diazabicyclo[3.2.1]octan-3-yl}-7-(8-ethyl-3-hydroxynaphthalen-1-yl)-8-fluoropyrido[4,3-d]pyrimidin-2-yl)oxy]ethyl}piperidin-1-yl)methyl]azetidin-1-yl}-1,2-oxazol-5-yl)-3-methylbutanoyl]-4-hydroxy-N-[(1S)-1-[4-(4-methyl-1,3-thiazol-5-yl)phenyl]ethyl]pyrrolidine-2-carboxamide] | 80 to 100 | < 0.6 |
| CCc1cccc2cc(O)cc(-c3ncc4c(N5CCCCCC5)nc(OC[C@]56CCCN5[C@H](COC(=O)N5CC(Oc7cc([C@H](C(=O)N8C[C@H](O)C[C@H]8C(=O)N[C@@H](C)c8ccc(-c9scnc9C)cc8)C(C)C)on7)C5)CC6)nc4c3F)c12 [Compound 300] | 80 to 100 | < 0.6 |
| CCc1cccc2cc(O)cc(-c3ncc4c(N5CC6CCC(C5)N6)nc(OC[C@]56CCCN5[C@H](COC(=O)N5CCN(c7cc([C@H](C(=O)N8C[C@H](O)C[C@H]8C(=O)N[C@@H](C)c8ccc(-c9scnc9C)cc8)C(C)C)on7)C[C@H]5C)CC6)nc4c3F)c12 [Compound 120, [(3S,7aR)-7a-{[(4-{3,8-diazabicyclo[3.2.1]octan-3-yl}-7-(8-ethyl-3-hydroxynaphthalen-1-yl)-8-fluoropyrido[4,3-d]pyrimidin-2-yl)oxy]methyl}-hexahydro-1H-pyrrolizin-3-yl]methyl (2R)-4-{5-[(2R)-1-[(2S,4R)-4-hydroxy-2-{[(1S)-1-[4-(4-methyl-1,3-thiazol-5-yl)phenyl]ethyl]carbamoyl}pyrrolidin-1-yl]-3-methyl-1-oxobutan-2-yl]-1,2-oxazol-3-yl}-2-methylpiperazine-1-carboxylate] | 80 to 100 | < 0.6 |
| CCc1cccc2cc(O)cc(-c3ncc4c(N5CC6CCC(C5)N6)nc(N5CC(CN6CCC(CC7CN(c8cc([C@@H](C(=O)N9C[C@H](O)C[C@H]9C(=O)N[C@@H](C)c9ccc(-c%10scnc%10C)cc9)C(C)C)on8)C7)CC6)C5)nc4c3F)c12 [Compound 189, (2S,4R)-1-[(2S)-2-(3-{3-[(1-{[1-(4-{3,8-diazabicyclo[3.2.1]octan-3-yl}-7-(8-ethyl-3-hydroxynaphthalen-1-yl)-8-fluoropyrido[4,3-d]pyrimidin-2-yl)azetidin-3-yl]methyl}piperidin-4-yl)methyl]azetidin-1-yl}-1,2-oxazol-5-yl)-3-methylbutanoyl]-4-hydroxy-N-[(1S)-1-[4-(4-methyl-1,3-thiazol-5-yl)phenyl]ethyl]pyrrolidine-2-carboxamide] |  | > 3 |
| CCc1cccc2cc(O)cc(-c3ncc4c(N5CC6CCC(C5)N6)nc(N5CC(CN6CCC(CC7CN(c8cc([C@H](C(=O)N9C[C@H](O)C[C@H]9C(=O)N[C@@H](C)c9ccc(-c%10scnc%10C)cc9)C(C)C)on8)C7)CC6)C5)nc4c3F)c12 [Compound 182, (2S,4R)-1-[(2R)-2-(3-{3-[(1-{[1-(4-{3,8-diazabicyclo[3.2.1]octan-3-yl}-7-(8-ethyl-3-hydroxynaphthalen-1-yl)-8-fluoropyrido[4,3-d]pyrimidin-2-yl)azetidin-3-yl]methyl}piperidin-4-yl)methyl]azetidin-1-yl}-1,2-oxazol-5-yl)-3-methylbutanoyl]-4-hydroxy-N-[(1S)-1-[4-(4-methyl-1,3-thiazol-5-yl)phenyl]ethyl]pyrrolidine-2-carboxamide] | 20 to 60 | < 0.6 |
| C#Cc1c(F)ccc2cccc(-c3ncc4c(N5CC6CCC(C5)N6)nc(OC[C@@]56CCCN5[C@H](COc5cc([C@@H](C(=O)N7C[C@H](O)C[C@H]7C(=O)N[C@@H](C)c7ccc(-c8scnc8C)cc7)C(C)C)on5)CC6)nc4c3F)c12 [Compound 51, (2S,4R)-1-[(2S)-2-(3-{[(3S,7aS)-7a-{[(4-{3,8-diazabicyclo[3.2.1]octan-3-yl}-7-(8-ethynyl-7-fluoronaphthalen-1-yl)-8-fluoropyrido[4,3-d]pyrimidin-2-yl)oxy]methyl}-hexahydro-1H-pyrrolizin-3-yl]methoxy}-1,2-oxazol-5-yl)-3-methylbutanoyl]-4-hydroxy-N-[(1S)-1-[4-(4-methyl-1,3-thiazol-5-yl)phenyl]ethyl]pyrrolidine-2-carboxamide] |  | > 3 |
| CCc1cccc2cc(O)cc(-c3ncc4c(N5CC6CCC(C5)N6)nc(OC[C@]56CCCN5[C@H](COC(=O)N5CCC(Oc7cc([C@H](C(=O)N8C[C@H](O)C[C@H]8C(=O)N[C@@H](C)c8ccc(-c9scnc9C)cc8)C(C)C)on7)CC5)CC6)nc4c3F)c12 [Compound 116, [(3S,7aR)-7a-{[(4-{3,8-diazabicyclo[3.2.1]octan-3-yl}-7-(8-ethyl-3-hydroxynaphthalen-1-yl)-8-fluoropyrido[4,3-d]pyrimidin-2-yl)oxy]methyl}-hexahydro-1H-pyrrolizin-3-yl]methyl 4-({5-[(2R)-1-[(2S,4R)-4-hydroxy-2-{[(1S)-1-[4-(4-methyl-1,3-thiazol-5-yl)phenyl]ethyl]carbamoyl}pyrrolidin-1-yl]-3-methyl-1-oxobutan-2-yl]-1,2-oxazol-3-yl}oxy)piperidine-1-carboxylate] | 80 to 100 | < 0.6 |
| CCc1cccc2cc(O)cc(-c3ncc4c(N5CC6CCC(C5)N6)nc(OC[C@]56CCCN5[C@@H](COC(=O)N(C)Cc5cc([C@H](C(=O)N7C[C@H](O)C[C@H]7C(=O)N[C@@H](C)c7ccc(-c8scnc8C)cc7)C(C)C)on5)CC6)nc4c3F)c12 [Compound 92, [(3R,7aR)-7a-{[(4-{3,8-diazabicyclo[3.2.1]octan-3-yl}-7-(8-ethyl-3-hydroxynaphthalen-1-yl)-8-fluoropyrido[4,3-d]pyrimidin-2-yl)oxy]methyl}-hexahydro-1H-pyrrolizin-3-yl]methyl N-({5-[(2R)-1-[(2S,4R)-4-hydroxy-2-{[(1S)-1-[4-(4-methyl-1,3-thiazol-5-yl)phenyl]ethyl]carbamoyl}pyrrolidin-1-yl]-3-methyl-1-oxobutan-2-yl]-1,2-oxazol-3-yl}methyl)-N-methylcarbamate] | 80 to 100 | < 0.6 |
| CCc1cccc2cc(O)cc(-c3ncc4c(N5CC6CCC(C5)N6)nc(OCCN5CCC(C)(CCOc6cc([C@H](C(=O)N7C[C@H](O)C[C@H]7C(=O)N[C@@H](C)c7ccc(-c8scnc8C)cc7)C(C)C)on6)CC5)nc4c3F)c12 [Compound 237] |  | > 3 |
| CCc1cccc2cc(O)cc(-c3ncc4c(N5CC6CCC(C5)N6)nc(OC[C@@H]5CC[C@@H](COC(=O)N6CC7(C6)CN(c6cc([C@H](C(=O)N8C[C@H](O)C[C@H]8C(=O)N[C@@H](C)c8ccc(-c9scnc9C)cc8)C(C)C)on6)C7)N5C)nc4c3F)c12 [Compound 213, [(2S,5S)-5-{[(4-{3,8-diazabicyclo[3.2.1]octan-3-yl}-7-(8-ethyl-3-hydroxynaphthalen-1-yl)-8-fluoropyrido[4,3-d]pyrimidin-2-yl)oxy]methyl}-1-methylpyrrolidin-2-yl]methyl 6-{5-[(2R)-1-[(2S,4R)-4-hydroxy-2-{[(1S)-1-[4-(4-methyl-1,3-thiazol-5-yl)phenyl]ethyl]carbamoyl}pyrrolidin-1-yl]-3-methyl-1-oxobutan-2-yl]-1,2-oxazol-3-yl}-2,6-diazaspiro[3.3]heptane-2-carboxylate] | 80 to 100 | < 0.6 |
| CCc1cccc2cc(O)cc(-c3ncc4c(N5CCCCCC5)nc(OC[C@]56CCCN5[C@H](COC(=O)N5CCN(c7cc([C@H](C(=O)N8C[C@H](O)C[C@H]8C(=O)N[C@@H](C)c8ccc(-c9scnc9C)cc8)C(C)C)on7)[C@H](C)C5)CC6)nc4c3F)c12 [Compound 227, [(3S,8R)-8-[[4-(azepan-1-yl)-7-(8-ethyl-3-hydroxy-1-naphthyl)-8-fluoro-pyrido[4,3-d]pyrimidin-2-yl]oxymethyl]-1,2,3,5,6,7-hexahydropyrrolizin-3-yl]methyl (3R)-4-[5-[(1R)-1-[(2S,4R)-4-hydroxy-2-[[(1S)-1-[4-(4-methylthiazol-5-yl)phenyl]ethyl]carbamoyl]pyrrolidine-1-carbonyl]-2-methyl-propyl]isoxazol-3-yl]-3-methyl-piperazine-1-carboxylate] | 80 to 100 | < 0.6 |
| CCc1cccc2cc(O)cc(-c3ncc4c(N5CCCCCC5)nc(OC[C@@]56CCCN5[C@H](COC(=O)N5CCN(c7cc([C@H](C(=O)N8C[C@H](O)C[C@H]8C(=O)N[C@@H](C)c8ccc(-c9scnc9C)cc8)C(C)C)on7)[C@H](C)C5)CC6)nc4c3F)c12 [Compound 229, [(3S,8S)-8-[[4-(azepan-1-yl)-7-(8-ethyl-3-hydroxy-1-naphthyl)-8-fluoro-pyrido[4,3-d]pyrimidin-2-yl]oxymethyl]-1,2,3,5,6,7-hexahydropyrrolizin-3-yl]methyl (3R)-4-[5-[(1R)-1-[(2S,4R)-4-hydroxy-2-[[(1S)-1-[4-(4-methylthiazol-5-yl)phenyl]ethyl]carbamoyl]pyrrolidine-1-carbonyl]-2-methyl-propyl]isoxazol-3-yl]-3-methyl-piperazine-1-carboxylate] | 80 to 100 | < 0.6 |
